# Assay results from paper PMC9570088, “Phytochemicals with Chemopreventive Activity Obtained from the Thai Medicinal Plant Mammea siamensis (Miq.) T. Anders.: Isolation and Structure Determination of New Prenylcoumarins with Inhibitory Activity against Aromatase” (International Journal of Molecular Sciences, 2022).
# pIC50, pKi: −log10 of the molar value. Entries after “also recorded” stand apart in the source; their conditions may differ.
# Target: T1, human recombinant aromatase (Homo sapiens, UniProt P11511)
# T1 construct: purchased BD Biosciences (Heidelberg, Germany)
# T1 sequence (P11511 1-503): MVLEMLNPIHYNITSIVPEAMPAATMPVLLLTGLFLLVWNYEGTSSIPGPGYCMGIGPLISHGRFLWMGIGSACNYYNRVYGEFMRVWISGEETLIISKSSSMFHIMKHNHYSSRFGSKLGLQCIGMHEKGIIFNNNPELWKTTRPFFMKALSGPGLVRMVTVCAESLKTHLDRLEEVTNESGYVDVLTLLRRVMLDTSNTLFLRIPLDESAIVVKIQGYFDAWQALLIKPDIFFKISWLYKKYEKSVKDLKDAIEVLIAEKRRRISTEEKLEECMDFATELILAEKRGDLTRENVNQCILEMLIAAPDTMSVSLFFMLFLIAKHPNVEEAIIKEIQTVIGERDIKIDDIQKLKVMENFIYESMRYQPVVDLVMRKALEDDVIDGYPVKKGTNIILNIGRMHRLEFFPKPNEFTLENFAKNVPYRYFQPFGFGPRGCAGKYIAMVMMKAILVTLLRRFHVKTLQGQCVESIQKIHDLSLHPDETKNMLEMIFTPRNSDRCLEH
# Assay: Inhibitory effects against human recombinant aromatase (DBF fluorescence assay)
# Type: biochemical
# Conditions: 100 µM; value in parentheses
# Experimental: Dibenzylfluorescein (DBF) and human CYP19 + P450 reductase SUPERSOMES (human recombinant aromatase) were purchased from BD Biosciences (Heidelberg, Germany) and testosterone from Tokyo Chemical Industry Co., Ltd. (Tokyo, Japan). The other chemicals used in this study were purchased from Wako Pure Chemical Industries, Co., Ltd. (Osaka, Japan).
# The experiments were performed according to a previously described method. Briefly, a test sample was dissolved in dimethyl sulfoxide (DMSO), and the solution was diluted with potassium phosphate buffer (50 mM, pH 7.4) containing MgCl2 (0.5 mM) to obtain the test sample solution (concentration of DMSO: 2%). An enzyme/substrate solution in the buffer (20 µL, 1.6 µM DBF, 8 nM human recombinant aromatase) and the test sample solution (20 µL) were mixed in a 96-well half-area black microplate (Greiner Bio-One, Frickenhausen, Germany) at 37 °C for 10 min. The enzymatic reaction was initiated by adding NADPH solution (40 µL, 500 µM) at 37 °C for 30 min. After 30 min of incubation, NaOH (30 µL, 2 mM) was added, and the reaction mixture was incubated at 37 °C for 2 h to induce fluorescent signals (final DMSO concentration, 0.5%; aromatase, 2 nM; and NADPH, 250 µM). Fluorescence was measured using a fluorescence microplate reader (SH-9000, CORONA […] Co., Ltd., Ibaraki, Japan) at an excitation wavelength of 435 nm and emission wavelength of 535 nm. Experiments were performed in triplicate, and the IC50 values were determined graphically.
row,inhibition at 100 µM,SMILES
1,43.4%,"CCCC(=O)c1c2c(c3oc(=O)cc(-c4ccccc4)c3c1O)C(OC)C(C(C)(C)O)O2 (stereo not drawn) [compound 3, mammeasin M]"

# Same assay, conditions: substrate DBF; mean, N = 3
row,SMILES,pIC50
1,"CCCC(=O)c1c2c(c3oc(=O)cc(-c4ccccc4)c3c1O)C(OC)C(C(C)(C)O)O2 (stereo not drawn) [compound 3, mammeasin M]",< 4.00
2,"CCCC(=O)c1c(O)c2c(c3c(CCC)cc(=O)oc13)OC(C)(CCC=C(C)C)C=C2 (stereo not drawn) [compound 12, Mammeasin G]",4.67
3,"C/C=C/c1cc(=O)oc2c(C(=O)CCC)c(O)c3c(c12)OC(C)(CCC=C(C)C)C=C3 (stereo not drawn) [compound 14, Mammeasin I]",4.67
4,"CCCc1cc(=O)oc2c3c(c(C(=O)C(C)CC)c(O)c12)OC(C)(CCC=C(C)C)C=C3 (stereo not drawn) [compound 15, Mammeasin J]",4.63

# Results, then the compound that gave them:
row,pIC50,SMILES
1,5.12,"CCCC(=O)c1c(O)c2c(c3c(CCC)cc(=O)oc13)OC(C)(C)C=C2 [compound 1, mammeasin K]"
2,4.68,"CCCC(=O)c1c(O)c2c(c3c(-c4ccccc4)cc(=O)oc13)OC(C)(C)C=C2 [compound 2, mammeasin L]"
3,4.92,"C=C(C)c1cc2c(o1)c(C(=O)CCC)c(O)c1c(-c3ccccc3)cc(=O)oc12 [compound 4, mammeasin N]"
4,5.04,"C=C(C)c1cc2c(o1)c(C(=O)CC(C)C)c(O)c1c(-c3ccccc3)cc(=O)oc12 [compound 5, mammeasin O]"
5,4.95,"CC[C@H](O)c1cc(=O)oc2c(C(=O)CC(C)C)c(O)c3c(c12)OC(C)(CCC=C(C)C)C=C3 (stereo partly drawn) [compound 10, Mammeasin E]"
6,4.75,"CCCc1cc(=O)oc2c(C(=O)C(C)CC)c(O)c3c(c12)OC(C)(CCC=C(C)C)C=C3 (stereo not drawn) [compound 13, Mammeasin H]"
7,5.00,"CCCC(=O)c1c(O)c(C/C=C(\C)CCC=C(C)C)c(O)c2c([C@@H](O)CC)cc(=O)oc12 [compound 19, Kayeassamin A]"
8,4.68,"CCC(OC(C)=O)c1cc(=O)oc2c(C(=O)C(C)C)c(O)c3c(c12)OC(C)(C)C=C3 (stereo not drawn) [compound 34, Mammea E/BD cyclo D]"
9,4.70,"CCCC(=O)c1c2c(c3oc(=O)cc(-c4ccccc4)c3c1O)CC(C(C)(C)O)O2 (stereo not drawn) [compound 40, Mammea A/AC cyclo F]"
10,4.71,"CC[C@H](O)c1cc(=O)oc2c3c(c(C(=O)CC(C)C)c(O)c12)OC(C)(C)C=C3 [compound 41, Deacetylammea E/AA cyclo D]"
11,4.92,"CCC(C)C(=O)c1c(O)c2c(c3c([C@@H](O)CC)cc(=O)oc13)OC(C)(C)C=C2 (stereo partly drawn) [compound 42, Deacetylammea E/BB cyclo D]"

# Target: T1, human recombinant aromatase
# Assay: not given
# Parameters: method as in PMID 27373643
# Conditions: value marked as from earlier report; read-out: IC50 against human recombinant aromatase; cited from earlier work
row,SMILES,pIC50
1,"CCCC(=O)c1c(O)c(C/C=C(\C)CCC=C(C)C)c(O)c2c([C@H](CC)OC(C)=O)cc(=O)oc12 [compound 6, Mammeasin A]",5.06
2,"CC[C@H](OC(C)=O)c1cc(=O)oc2c(C(=O)CC(C)C)c(O)c(C/C=C(\C)CCC=C(C)C)c(O)c12 [compound 7, Mammeasin B]",5.39
3,"CC(C)=CCC/C(C)=C/Cc1c(O)c(C(=O)C(C)C)c2oc(=O)cc3c2c1OC(C)C3 (stereo not drawn) [compound 8, Mammeasin C]",5.57
4,"CCCC(=O)c1c(O)c(C/C=C(\C)CCC=C(C)C)c2c3c(cc(=O)oc13)CC(C)O2 (stereo not drawn) [compound 9, Mammeasin D]",5.44

# Target: T1, human recombinant aromatase
# Assay: Kinetic analysis of inhibitory activity against human recombinant aromatase using Lineweaver-Burk plots (testosterone substrate, estradiol EIA)
# Type: biochemical
# Conditions: Lineweaver–Burk plots
# From the text: In the assay system, we fixed the enzyme concentration, changed the substrate concentration, and obtained the kinetic parameters of the enzyme-catalyzed reaction using Lineweaver–Burk double reciprocal plot 1/[V] vs. 1/[S]. The inhibition constant Ki indicates the potency of an inhibitor and equals the concentration required to produce half-maximal inhibition. The Ki value was obtained from the intersection of the secondary plot with the x-axis (apparent Km/Vmax vs. inhibitor).
# Experiments were performed using a previously described protocol, modified by using various concentrations of testosterone (0.4–4 µM) as substrates instead of DBF and the plate was heated at 37 °C for 15 min. After the reaction, the enzyme was inactivated by heating in a boiling water bath for 2 min. An estradiol EIA kit (Oxford Biomedical Research, Inc., Oxford, MI, USA) was used to develop an estradiol standard curve to determine the concentration of estradiol produced and to correlate the concentration of estradiol with the reaction velocity. The mode of inhibition was analyzed using the Lineweaver–Burk plot of the inverse of the reaction velocity of estradiol plotted on the vertical axis and the inverse of the final concentration of the substrate on the horizontal axis, with and without the test substance (Figure S27).
row,SMILES,mode of inhibition of aromatase
1,"CCCC(=O)c1c(O)c2c(c3c(CCC)cc(=O)oc13)OC(C)(C)C=C2 [compound 1, mammeasin K]",competitively inhibit; also recorded: competitive inhibition; also recorded: competitive inhibitors
2,"C=C(C)c1cc2c(o1)c(C(=O)CCC)c(O)c1c(-c3ccccc3)cc(=O)oc12 [compound 4, mammeasin N]",competitive inhibition; also recorded: competitive inhibitors
3,"C=C(C)c1cc2c(o1)c(C(=O)CC(C)C)c(O)c1c(-c3ccccc3)cc(=O)oc12 [compound 5, mammeasin O]",competitively inhibit; also recorded: competitive inhibition; also recorded: competitive inhibitors
4,"CC[C@H](OC(C)=O)c1cc(=O)oc2c(C(=O)CC(C)C)c(O)c(C/C=C(\C)CCC=C(C)C)c(O)c12 [compound 7, Mammeasin B]",competitive inhibition; also recorded: competitive inhibitors
5,"CC(C)=CCC/C(C)=C/Cc1c(O)c(C(=O)C(C)C)c2oc(=O)cc3c2c1OC(C)C3 (stereo not drawn) [compound 8, Mammeasin C]",competitive inhibition; also recorded: competitive inhibitors

# Same assay, conditions: testosterone 0.4–4 µM as substrate; secondary plot of Lineweaver–Burk; N = 3
row,SMILES,pKi
1,"CCCC(=O)c1c(O)c(C/C=C(\C)CCC=C(C)C)c(O)c2c([C@H](CC)OC(C)=O)cc(=O)oc12 [compound 6, Mammeasin A]",5.29
2,"CC[C@H](OC(C)=O)c1cc(=O)oc2c(C(=O)CC(C)C)c(O)c(C/C=C(\C)CCC=C(C)C)c(O)c12 [compound 7, Mammeasin B]",5.89
3,"CC(C)=CCC/C(C)=C/Cc1c(O)c(C(=O)C(C)C)c2oc(=O)cc3c2c1OC(C)C3 (stereo not drawn) [compound 8, Mammeasin C]",5.55
4,"CCCC(=O)c1c(O)c(C/C=C(\C)CCC=C(C)C)c2c3c(cc(=O)oc13)CC(C)O2 (stereo not drawn) [compound 9, Mammeasin D]",5.37

# More lines, now with the values ahead:
row,pKi,SMILES
1,5.47,"CCCC(=O)c1c(O)c2c(c3c(CCC)cc(=O)oc13)OC(C)(C)C=C2 [compound 1, mammeasin K]"
2,5.59,"C=C(C)c1cc2c(o1)c(C(=O)CCC)c(O)c1c(-c3ccccc3)cc(=O)oc12 [compound 4, mammeasin N]"
3,5.64,"C=C(C)c1cc2c(o1)c(C(=O)CC(C)C)c(O)c1c(-c3ccccc3)cc(=O)oc12 [compound 5, mammeasin O]"
4,5.15,"CC[C@H](O)c1cc(=O)oc2c(C(=O)CC(C)C)c(O)c3c(c12)OC(C)(CCC=C(C)C)C=C3 (stereo partly drawn) [compound 10, Mammeasin E]"
